Test results as given in patent US5180742A, “Quinone derivatives, their production and use” (Takeda Chemical Industries, Ltd., priority 1984, dated 1993).

Experiments:
5-Lipoxygenase = molecular target: T1, 5-Lipoxygenase (Rattus norvegicus, UniProt P12527); test: 5-Lipoxygenase inhibitory activity: 5-HETE production in RBL-1 cells (HPLC); type: cell-based, rat (RBL-1, rat basophilic leukemia cells); conditions: arachidonic acid + A 23187, 37° C., 20 minutes, read-out: 5-HETE production inhibiting effect (IC50)
T1 construct: endogenous in cells; host or cells: RBL-1 (rat basophilic leukemia cells)
T1 sequence (P12527 1-673): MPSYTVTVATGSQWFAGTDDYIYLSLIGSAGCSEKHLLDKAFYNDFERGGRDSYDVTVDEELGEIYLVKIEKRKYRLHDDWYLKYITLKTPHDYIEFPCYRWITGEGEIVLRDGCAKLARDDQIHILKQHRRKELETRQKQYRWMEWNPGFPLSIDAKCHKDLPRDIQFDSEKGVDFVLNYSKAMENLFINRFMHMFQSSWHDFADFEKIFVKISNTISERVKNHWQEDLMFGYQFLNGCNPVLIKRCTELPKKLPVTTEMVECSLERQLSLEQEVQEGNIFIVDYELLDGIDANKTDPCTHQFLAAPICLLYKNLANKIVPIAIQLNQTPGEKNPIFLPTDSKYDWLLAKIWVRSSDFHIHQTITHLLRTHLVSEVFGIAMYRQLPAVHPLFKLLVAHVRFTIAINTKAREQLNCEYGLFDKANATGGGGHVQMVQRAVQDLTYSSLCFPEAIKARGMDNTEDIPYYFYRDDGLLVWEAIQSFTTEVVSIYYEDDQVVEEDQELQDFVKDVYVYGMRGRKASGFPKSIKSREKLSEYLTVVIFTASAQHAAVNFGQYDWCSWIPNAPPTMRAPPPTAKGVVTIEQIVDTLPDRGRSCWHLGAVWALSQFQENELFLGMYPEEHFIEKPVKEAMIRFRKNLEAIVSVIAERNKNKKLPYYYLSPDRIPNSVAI
Experimental: 5-Lipoxygenase Inhibitory Activity
10^7 RBL-1 cells (rat basophilic leukemia cells) were suspended in 0.5 ml of MCM (mast cell medium), and test solutions (made up of 0.5 ml of MCM, 50 μg of arachidonic acid, 10 μg of A 23187 (calcium ionophore, Eli Lilly) and 1 μM, 0.1 μM, 0.01 μM and0.001 μM as the final concentration of the quinone compound, respectively) prepared previously were added respectively to the suspension, followed by reaction at 37° C. for 20 minutes. After the conclusion of the reaction, 4 ml of ethanol and 1,4-dimethoxy-2-methyl-3-(3-methoxypropyl)naphthalene as the internal reference drug were added to the reaction solution, and the mixture was shaken thoroughly and allowed to stand at room temperature for 10 minutes. Then, it was centrifuged (2000 r.p.m.) for 10 minutes, and the supernatant fluid was separated and concentrated to dryness under reduced pressure. 0.5 Milliliter of 60% aqueous methanol was added to the concentrate, and 100 μl of the resulting solution was taken and subjected to high-performance liquid chromatography to determine amount of 5-HETE (5-hydroxyeicosatetraenoic acid). Determination of 5-HETE was made through measurement of an absorption at 237 nm with a UV absorption monitor.
The 5-HETE production inhibitory effect (IE) was expressed by [formula] wherein a is a peak height or peak area corrected by the peak for the internal reference when the quinone compound is not contained; b is a peak height or peak area corrected by the peak for the internal reference when the quinone compound is contained.

[1] = system: LTD4-induced bronchoconstriction; test: Effect on LTD4-induced bronchoconstriction in guinea pigs; type: in vivo
Experimental: Effect on LTD4 -Induced Brochoconstriction in Guinea Pigs
Bronchoconstriction in guinea pigs was measured by the method of Konzett-Rossler[Naunyn-Schmiedeberg's Arch. exp. Path. Pharmak., 195, 71-74(1940)]. The animals were anesthetized with urethane (1.5 g/kg, intraperitoneally) and the trachea was cannulated. The animals were artificially ventilated by means of a respirator (Harvard apparatus rodent respirator) at a rate of 70 strokes/min and a constant volume of 5-7 ml. Inflation pressure was kept constantly at 10 cm H2 O. Changes in overflow of air from a side-arm of the cannula were recorded on Rectigraph-8S via a bronchospasm transducer for 15 min. LTD4 (10 μg/kg) was given into the […] through an indwelling cannula. Each specimen suspended in a 5% gum arabic solution was also given through the same cannula 1 or 24 hrs before the LTD4 administraction.

[2] = system: PAF-induced bronchoconstriction; test: Effect on PAF-induced bronchoconstriction in guinea pigs; type: in vivo; conditions: one hour before PAF
Experimental: Platelet Activating Factor (PAF)-Induced Bronchoconstriction in Guinea Pigs
Experimental procedure in this experiment was the same as that in LTD4 -induced bronchoconstriction shown in Experimental example 7. PAF is an intraveneous dose of 1 μg/kg was used. Each specimen suspended in a 5% gum arabic solution was given orally one hour before the PAF administration.

[3] = system: O2^- production in guinea pigs peritoneal macrophages; test: Inhibitory effect on O2- production in guinea pig peritoneal macrophages (chemiluminescence); type: cell-based, guinea pig (Hartley); conditions: Cavia porcellus, Peritoneal macrophage, 3 experiments; for inhibition at 100 µM: 10^-4 M; for inhibition at 10 µM: 10^-5 M; for inhibition at 1 µM: 10^-6 M
Experimental: Superoxide (O2^-) Production in Guinea Pig Peritoneal Macrophages
Male Hartley guinea pigs weighing 400-450 g were given intraperitoneally 5 ml of liquid paraffin. Four days later, 15 ml of Hank's buffer were administered into the peritoneal cavity for harvest of peritoneal cells. Macrophages in the peritoneal cells were purified by the method of Wood, P. R. [J. Immunol. Methods, 28, 117-124 (1979)].
The purity of macrophages was more than 95%. The reaction mixture contained 75 μl of macrophages (1×10^7 cells/ml), 5 μl of luminol, 10 μl of phorbol myristate acetate and 10 μl of drugs in a total volume of 100 μl. O2^- Product was assayed by chemiluminescence. Drugs were dissolved in a 10% dimethyl sulfoxide.

Compound	IC50 (5-Lipoxygenase)	% Inhibition of LTD4-induced bronchoconstriction ([1]; 0.313 mg/kg, 1 hr. before LTD4)	% Inhibition of LTD4-induced bronchoconstriction ([1]; 1.25 mg/kg, 1 hr. before LTD4)	% Inhibition of LTD4-induced bronchoconstriction ([1]; 5 mg/kg, 1 hr. before LTD4)	% Inhibition of LTD4-induced bronchoconstriction ([1]; 5 mg/kg, 24 hrs. before LTD4)	% Inhibition of PAF-induced bronchoconstriction ([2]; 0.313 mg/kg oral)	% Inhibition of PAF-induced bronchoconstriction ([2]; 1.25 mg/kg oral)	% Inhibition of PAF-induced bronchoconstriction ([2]; 5 mg/kg oral)	inhibition at 100 µM [3]	inhibition at 10 µM [3]	inhibition at 1 µM [3]	% Inhibition of PAF-induced bronchoconstriction ([2]; 0.08 mg/kg oral)
CC1=C(C)C(=O)C(C(CCCCCC(=O)O)c2ccccc2)=C(C)C1=O (stereo not shown) [Compound No. 50, 7-(3,5,6-trimethyl-1,4-benzoquinon-2-yl)-7-phenylheptanoic acid]	28 nM	58%	77%	94%	72%	66%	94%	85%	88 ± 2%	38 ± 3%	16 ± 6%	
CC1=C(C)C(=O)C(C(CCCCCC(=O)O)c2ccc(C)cc2)=C(C)C1=O (stereo not shown) [Compound No. 93]	90 nM	73%	83%	85%	53%	87%	70%		91 ± 3%	33 ± 12%	9 ± 6%	58%
